According to patent US9459250B2, “Use of T1R3 venus flytrap region polypeptide to screen for taste modulators” (SENOMYX, INC., priority 2003, dated 2016):
Like-named read-outs stand apart in the source and are kept apart here. Where a SMILES comes first, the peptide text is derived from it.

Columns and labels:
Type in all cases: cell-based
T1R1/T1R3 [1] = biological target: T1, T1R1/T1R3 (Homo sapiens (Human), UniProt Q7RTX0+Q7RTX1); experiment: Umami FLIPR assay, HEK-Gα15 clone I-17 inducibly expressing T1R1/T1R3; conditions: for EC50: Table 1 Umami Amides
Procedure: A dose-dependent response curve was determined for a compound, and the compound concentration corresponding to 50% of the maximal response was derived from the curve, in one example.
Regarding umami tastants and enhancers, scores of their activities can be given as percentage of the maximum MSG intensity (%). In compound dose response, an EC50 can be calculated to reflect the potency of the compound as umami agonist.
(§1) HEK-Gα15 cells were engineered to inducibly express T1R1/T1R3 using the GeneSwitch system (Invitrogen). pGene-derived zeocin-resistant expression vectors for human T1R1 and T1R3 (plasmid SXV603 for T1R1 and SXV611 for T1R3) and a puromycin-resistant pSwitch-derived vector that carries the GeneSwitch protein (plasmid SXV628) were linearized and cotransfected into the HEK-Gα15 cell line. Zeocin-resistant and puromycin-resistant colonies were selected, expanded, induced with variable amounts of mifepristone, and tested by calcium imaging for responses to umami taste stimuli. […] After replacement with 50 μl PBS, stimulation was performed at room temperature by the addition of 50 μl PBS supplemented with different stimuli. The maximal fluorescence from four independent determinations were averaged, corrected for background fluorescence measured prior to compound addition, and normalized to the response to 0.002 mM ionomycin (CALBIOCHEM).

T1R1/T1R3 [2] = biological target: T1, T1R1/T1R3; experiment: Umami enhancement assay: MSG dose response with and without compound; conditions: for Umami EC50 ratio: Table 5, compound concentration not given
Procedure: In enhancement assay experiments, a MSG dose response was run and a second MSG dose response was run with a certain amount of candidate compound at every MSG concentrations at the same time. Then, the EC50 ratio is calculated based on the following definitions: EC50 Ratio=EC50(MSG)/EC50(MSG+[Compound])
wherein “[compound]” refers to the concentration of compound used to elicit (or enhance or potentiate) the MSG dose response. Those concentrations can vary from a pM to an mM, more preferred, from a low nM to μM.
as §1

human sweet receptor = human sweet receptor (Homo sapiens (Human), UniProt Q7RTX0+Q8TE23); experiment: Dose responses of human sweet receptor with lactisole; conditions: read-out: EC50 of sweetener
Source text: Values represent the mean±SE for four independent responses.

T1R1/T1R3 [3] = biological target: T1, T1R1/T1R3; experiment: FLIPR dose responses of human T1R1/T1R3 stable cell line with modulators; conditions: for effect of control sweeteners on activities of T1R1/T1R3 umami taste receptor: [Steviocide]=0.5 mM, [Saccharin]=1 mM, glutamate and glutamate/IMP dose responses
Source text: “Detection thresholds” are defined as the lower limit of detectable tastants. The detection threshold values were averaged over four trials for three subjects. […] The activities in B, C, E and F represent the mean±SE of fold increases in fluorescence intensities for four recorded wells. The dose-responses in B, C, E and F were reproduced at least 6 times independently.
Human cell lines that stably co-express human T1R2/T1R3 or human T1R1/T1R3 were generated by transfecting linearized PEAK10-derived (Edge Biosystems) vectors and pcDNA 3.1/ZEO-derived (Invitrogen) vectors respectively containing hT1R1 or hT1R2 expression construct (plasmid SAV2485 for T1R1, SAV2486 for T1R2) and hT1R3 (plasmid SXV550 for T1R3) into a Gα15 expressing cell line. […] Following SAV2485/SXV550 and SAV2486/SXV550 transfections, puromycin-resistant and zeocin-resistant colonies were selected, expanded, and tested by calcium imaging for responses to sweet or umami taste stimuli. Cells were selected in 0.0005 mg/ml puromycin (CALBIOCHEM) and 0.1 mg/ml zeocin (Invitrogen) at 37° C. in low-glucose DMEM supplemented with GlutaMAX, 10% dialyzed FBS, and 0.003 mg/ml blasticidin. Resistant colonies were expanded, and their responses to sweet taste stimuli evaluated by Fluorescence microscopy. For automated fluorimetric imaging on VIPR-II instrumentation (Aurora Biosciences), T1R2/T1R3 stable cells were first seeded onto 96-well plates (approximately 100,000 cells per well).

T1 sequence (Q7RTX1 21-841): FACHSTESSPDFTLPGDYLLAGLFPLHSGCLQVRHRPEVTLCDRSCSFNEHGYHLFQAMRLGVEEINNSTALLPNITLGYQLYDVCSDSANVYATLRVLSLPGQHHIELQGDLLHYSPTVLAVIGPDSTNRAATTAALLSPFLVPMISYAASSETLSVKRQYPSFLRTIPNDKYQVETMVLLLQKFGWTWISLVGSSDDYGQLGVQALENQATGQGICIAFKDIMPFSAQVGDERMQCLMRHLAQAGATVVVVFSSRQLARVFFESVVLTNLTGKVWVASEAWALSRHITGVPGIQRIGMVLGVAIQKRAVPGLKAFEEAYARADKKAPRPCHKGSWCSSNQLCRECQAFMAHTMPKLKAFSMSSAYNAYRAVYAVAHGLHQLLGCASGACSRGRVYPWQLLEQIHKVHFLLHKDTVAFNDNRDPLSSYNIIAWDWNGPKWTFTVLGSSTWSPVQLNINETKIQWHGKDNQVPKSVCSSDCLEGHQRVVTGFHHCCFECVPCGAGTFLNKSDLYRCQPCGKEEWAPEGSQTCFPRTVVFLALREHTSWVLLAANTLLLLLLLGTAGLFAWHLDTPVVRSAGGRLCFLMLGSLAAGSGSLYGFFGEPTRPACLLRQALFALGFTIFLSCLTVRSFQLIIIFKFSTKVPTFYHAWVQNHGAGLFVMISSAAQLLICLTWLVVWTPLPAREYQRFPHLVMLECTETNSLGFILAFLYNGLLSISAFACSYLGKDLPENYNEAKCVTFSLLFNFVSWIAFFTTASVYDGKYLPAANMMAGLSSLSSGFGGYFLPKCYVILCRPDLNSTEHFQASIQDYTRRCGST
T1 sequence (Q7RTX0 21-852 C757R): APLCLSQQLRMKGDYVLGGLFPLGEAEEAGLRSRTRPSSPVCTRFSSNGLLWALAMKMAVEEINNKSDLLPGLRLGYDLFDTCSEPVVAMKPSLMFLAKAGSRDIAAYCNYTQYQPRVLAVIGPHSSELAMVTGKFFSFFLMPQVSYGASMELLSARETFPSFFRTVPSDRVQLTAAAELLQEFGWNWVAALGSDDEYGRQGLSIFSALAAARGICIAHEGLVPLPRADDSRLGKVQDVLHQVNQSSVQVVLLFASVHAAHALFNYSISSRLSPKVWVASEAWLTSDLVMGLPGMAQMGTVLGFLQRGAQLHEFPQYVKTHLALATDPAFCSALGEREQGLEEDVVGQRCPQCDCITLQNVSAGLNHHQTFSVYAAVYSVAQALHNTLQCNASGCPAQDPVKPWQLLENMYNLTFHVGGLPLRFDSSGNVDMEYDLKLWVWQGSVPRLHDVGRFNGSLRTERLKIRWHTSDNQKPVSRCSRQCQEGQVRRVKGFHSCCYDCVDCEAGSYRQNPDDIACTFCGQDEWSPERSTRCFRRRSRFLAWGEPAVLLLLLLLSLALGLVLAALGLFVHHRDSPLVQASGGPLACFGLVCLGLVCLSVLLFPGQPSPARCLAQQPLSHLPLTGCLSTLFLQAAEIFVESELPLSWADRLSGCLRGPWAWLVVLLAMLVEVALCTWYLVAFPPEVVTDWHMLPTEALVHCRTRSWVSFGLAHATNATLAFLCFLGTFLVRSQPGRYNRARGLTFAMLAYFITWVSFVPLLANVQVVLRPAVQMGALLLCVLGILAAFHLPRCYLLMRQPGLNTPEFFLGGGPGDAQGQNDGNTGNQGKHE
Chain of human sweet receptor (Q8TE23 other isoform, or with tags, fused parts or gaps): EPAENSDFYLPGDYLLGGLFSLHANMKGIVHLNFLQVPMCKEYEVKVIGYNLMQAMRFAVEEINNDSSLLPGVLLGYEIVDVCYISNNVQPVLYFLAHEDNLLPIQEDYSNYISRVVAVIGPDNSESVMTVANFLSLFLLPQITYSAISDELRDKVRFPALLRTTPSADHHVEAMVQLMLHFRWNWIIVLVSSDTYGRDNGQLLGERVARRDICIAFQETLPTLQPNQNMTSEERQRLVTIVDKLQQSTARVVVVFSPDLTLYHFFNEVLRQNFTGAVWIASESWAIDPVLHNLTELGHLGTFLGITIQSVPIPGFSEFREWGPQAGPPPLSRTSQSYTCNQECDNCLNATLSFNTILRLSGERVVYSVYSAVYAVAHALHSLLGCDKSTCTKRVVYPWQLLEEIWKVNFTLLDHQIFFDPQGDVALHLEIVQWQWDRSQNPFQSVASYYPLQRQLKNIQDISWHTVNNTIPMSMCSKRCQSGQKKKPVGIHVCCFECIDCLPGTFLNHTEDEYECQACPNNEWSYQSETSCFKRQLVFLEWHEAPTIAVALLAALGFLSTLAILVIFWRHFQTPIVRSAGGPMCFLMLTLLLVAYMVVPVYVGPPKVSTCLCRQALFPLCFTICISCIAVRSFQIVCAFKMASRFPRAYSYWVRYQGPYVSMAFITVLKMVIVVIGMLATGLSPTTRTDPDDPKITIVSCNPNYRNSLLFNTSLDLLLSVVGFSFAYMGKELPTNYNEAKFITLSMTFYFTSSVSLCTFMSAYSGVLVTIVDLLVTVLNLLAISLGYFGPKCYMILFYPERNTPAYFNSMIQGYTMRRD
Chain of human sweet receptor (Q7RTX0 21-852 C757R): as the sequence (Q7RTX0 21-852 C757R) above

## CCCC(CCC)NC(=O)c1cc2cc(C)ccc2o1 [Compound A10]
T1R1/T1R3 [1]
  EC50: 0.91 µM
T1R1/T1R3 [2]; Table 1, compound @ 1 uM
  Ec50 ratio (vs. MSG): 4.51

## COC(=O)[C@@H](CC(C)C)NC(=O)c1ccc2nc(C)oc2c1 [Compound A25]
T1R1/T1R3 [1]
  EC50: 1.48 µM

## COC(=O)C(NC(=O)c1ccc2oc(C)nc2c1)C(C)C(C)C (centres unmarked) [Compound A28]
T1R1/T1R3 [1]
  EC50: 1.69 µM

## CC[C@@H](C)[C@@](C)(NC(=O)c1ccc2c(c1)OCO2)C(=O)OC [Compound A42]
T1R1/T1R3 [1]
  EC50: 0.35 µM

## CCCC[C@@H](NC(=O)c1ccc2c(c1)OCO2)C(=O)OC [Compound A44]
T1R1/T1R3 [1]
  EC50: 0.61 µM

## COC(=O)[C@@H](CC(C)C)NC(=O)c1ccc2c(c1)OCO2 [Compound A45]
T1R1/T1R3 [1]
  EC50: 0.88 µM

## CCCC(CC)NC(=O)c1ccc2c(c1)CCO2 (centres unmarked) [Compound A53]
T1R1/T1R3 [1]
  EC50: 1.83 µM

## CCC[C@@H](NC(=O)c1ccc(OC)c(Cl)c1)C(=O)OC [Compound A67]
T1R1/T1R3 [1]
  EC50: 0.29 µM
T1R1/T1R3 [2]; Table 1, compound @ 1 uM
  Ec50 ratio (vs. MSG): 10.75

## CCCC(CCC)NC(=O)c1cccc(C(C)(F)F)c1 [Compound A70]
T1R1/T1R3 [1]
  EC50: 0.33 µM

## CCCC(CCC)NC(=O)c1cccc(OC)c1 [Compound A84]
T1R1/T1R3 [1]
  EC50: 0.53 µM

## COC(=O)[C@@H](CCSC)NC(=O)c1ccc(OC)c(C)c1 [Compound A86]
T1R1/T1R3 [1]
  EC50: 0.53 µM

## COC(=O)[C@H]1CCCC[C@H]1NC(=O)c1ccc(OC)c(Cl)c1 [Compound A103]
T1R1/T1R3 [1]
  EC50: 1.36 µM

## COc1ccc(CNC(O)c2ccccc2-c2ccccc2)c(OC)c1 (centres unmarked) [Compound A104]
T1R1/T1R3 [1]
  EC50: 1.37 µM

## O=C(Nc1ccccc1Cl)NC1CCCc2ccccc21 (centres unmarked) [Compound C7, 1-(2-chlorophenyl)-3-(1,2,3,4-tetrahydronaphthalen-1-yl)urea]
T1R1/T1R3 [2]; Table 3, Con. 1 uM
  Ec50 ratio (vs. MSG): 3.68

## COc1ccc(NC(=O)NC2CCCCC2C)c(OC)c1 (centres unmarked) [Compound C8, 1-(2,4-dimethoxyphenyl)-3-(2-methylcyclohexyl)urea]
T1R1/T1R3 [2]; Table 3, Con. 0.3 uM
  Ec50 ratio (vs. MSG): 2.62

## CCOc1ccc(NC(=O)NC2CCCCC2C)cc1 (centres unmarked) [Compound C10, 1-(4-ethoxyphenyl)-3-(2-methylcyclohexyl)urea]
T1R1/T1R3 [2]; Table 3, Con. 0.3 uM
  Ec50 ratio (vs. MSG): 2.1

## O=C(Nc1ccccc1F)NC1CCCc2ccccc21 (centres unmarked) [Compound C11, 1-(2-fluorophenyl)-3-(1,2,3,4-tetrahydronaphthalen-1-yl)urea]
T1R1/T1R3 [2]; Table 3, Con. 1 uM
  Ec50 ratio (vs. MSG): 4.49

## CCC(CC)NC(=O)Nc1ccc(OC)cc1OC [Compound C13, 1-(2,4-dimethoxyphenyl)-3-(pentan-3-yl)urea]
T1R1/T1R3 [2]; Table 3, Con. 1 uM
  Ec50 ratio (vs. MSG): 11.87

## COc1ccc(/C=C/C(=O)NC(C(C)C)C(C)C)cc1 [Compound D1, (E)-N-(2,4-dimethylpentan-3-yl)-3-(4-methoxyphenyl)acrylamide]
T1R1/T1R3 [2]; Table 4, compound @ 1 uM
  Ec50 ratio (vs. MSG): 3.46

## CC(CCc1ccccc1)NC(=O)/C=C/c1cccs1 (centres unmarked) [Compound D4, N-(1-Methyl-3-phenyl-propyl)-3-thiophen-2-yl-acrylamide]
T1R1/T1R3 [2]; Table 4, compound @ 1 uM
  Ec50 ratio (vs. MSG): 9.73

## CCCC(CCC)NC(=O)/C=C/c1ccc(OC)cc1 [Compound D5, (E)-N-(heptan-4-yl)-3-(4-methoxyphenyl)acrylamide]
T1R1/T1R3 [2]; Table 4, compound @ 0.3 uM
  Ec50 ratio (vs. MSG): 3.48

## CCCC(CCC)NC(=O)/C=C/c1cccs1 [Compound D6, N-(1-Propyl-butyl)-3-thiophen-2-yl-acrylamide]
T1R1/T1R3 [2]; Table 4, compound @ 1 uM
  Ec50 ratio (vs. MSG): 6.3

## CCC(CC)NC(=O)/C=C/c1ccc(OC)cc1 [Compound D7, (E)-3-(4-methoxyphenyl)-N-(pentan-3-yl)acrylamide]
T1R1/T1R3 [2]; Table 4, compound @ 1 uM
  Ec50 ratio (vs. MSG): 9.62

## CCOc1ccc(/C=C/C(=O)NC(C)CC)cc1 (centres unmarked) [Compound D13, (E)-N-sec-butyl-3-(4-ethoxyphenyl)acrylamide]
T1R1/T1R3 [2]; Table 4, compound @ 0.3 uM
  Ec50 ratio (vs. MSG): 2.7

## CCC(COC)NC(=O)/C=C/c1ccc(OC)cc1 (centres unmarked) [Compound D14, (E)-N-(1-methoxybutan-2-yl)-3-(4-methoxyphenyl)acrylamide]
T1R1/T1R3 [2]; Table 4, compound @ 1 uM
  Ec50 ratio (vs. MSG): 8.48

## CCCC(CCC)NC(=O)/C=C/c1ccsc1 [Compound D15, (E)-N-(heptan-4-yl)-3-(thiophen-3-yl)acrylamide]
T1R1/T1R3 [2]; Table 4, compound @ 0.3 uM
  Ec50 ratio (vs. MSG): 2.22

## COc1ccc(/C=C/C(=O)NC(C)CCc2ccccc2)cc1OC (centres unmarked) [Compound D16, (E)-3-(3,4-dimethoxyphenyl)-N-(4-phenylbutan-2-yl)acrylamide]
T1R1/T1R3 [2]; Table 4, compound @ 1 uM
  Ec50 ratio (vs. MSG): 3.13

## O=C(NC1CCCc2ccccc21)c1cccc(Cl)c1O (centres unmarked) [Compound E7, 3-chloro-2-hydroxy-N(-1,2,3,4-tetrahydronaphthalen-1-yl)benzamide]
T1R1/T1R3 [2]
  Umami EC50 ratio: 4.04

## COc1cc(C(=O)NC2CCCCC2C)cc(Cl)n1 (centres unmarked) [Compound E40, 2-chloro-6-methoxy-N-(2-methylcyclohexyl)isonicotinamide]
T1R1/T1R3 [2]
  Umami EC50 ratio: 9.77

## CC1CCCCC1NC(=O)c1ccnc(Cl)c1 (centres unmarked) [Compound E56, 2-chloro-N-(2-methylcyclohexyl)isonicotinamide]
T1R1/T1R3 [2]
  Umami EC50 ratio: 2.08

## CC1CCCCC1NC(=O)c1cccc(C(F)(F)F)c1 (centres unmarked) [Compound E59, N-(2-methylcyclohexyl)-3-(trifluoromethyl)benzamide]
T1R1/T1R3 [2]
  Umami EC50 ratio: 2.07

## CC1CCCCC1NC(=O)c1ccc(F)c(F)c1 (centres unmarked) [Compound E81, 3,4-difluoro-N-(2-methylcyclohexyl)benzamide]
T1R1/T1R3 [2]
  Umami EC50 ratio: 6.98

## COc1c(Cl)ccc(Cl)c1C(=O)Nc1ccccc1F [Compound E84, 3,6-dichloro-N-(2-fluorophenyl)-methoxybenzamide]
T1R1/T1R3 [2]
  Umami EC50 ratio: 16.51

## N[C@H](Cc1c[nH]c2ccccc12)C(=O)O [D-Trp, D-tryptophan]
Human sweet receptor; 0 μM lactisole
  EC50: 370 ± 20 µM
Human sweet receptor; 10 μM lactisole
  EC50: 600 µM
Human sweet receptor; 20 μM lactisole
  EC50: 940 ± 80 µM

## N[C@H](Cc1c[nH]c2ccccc12)C(=O)O [D-tryptophan]
T1R1/T1R3 [3]
  effect of other sweeteners on human T1R1/T1R3 activities: no effect

## N[C@@H](CC(=O)O)C(=O)O [L-aspartate, reference compound]
T1R1/T1R3 [1]; clone I-17, with and without IMP
  activation of T1R1/T1R3 receptor by L-amino acids: significantly activated

## C=C1C[C@@]23CC[C@H]4[C@@](C)(CCC[C@@]4(C)C(=O)O[C@@H]4O[C@H](CO)[C@@H](O)[C@H](O)[C@H]4O)[C@@H]2CC[C@]1(O[C@@H]1O[C@H](CO)[C@@H](O)[C@H](O)[C@H]1O[C@@H]1O[C@H](CO)[C@@H](O)[C@H](O)[C@H]1O)C3 [Steviocide, stevioside]
T1R1/T1R3 [3]
  effect of control sweeteners on activities of T1R1/T1R3 umami taste receptor: do not affect

## COC(=O)[C@H](Cc1ccccc1)NC(=O)[C@@H](N)CC(=O)O [aspartame] (H-Asp-Phe-OMe)
T1R1/T1R3 [3]
  effect of other sweeteners on human T1R1/T1R3 activities: no effect

## O=S(=O)(O)NC1CCCCC1 [cyclamate]
T1R1/T1R3 [3]; alone
  effect of compound alone on T1R1/T1R3: no effect
T1R1/T1R3 [3]; threshold level of L-glutamate (4 mM)
  effect on T1R1/T1R3 activity in the presence of L-glutamate: enhanced the activity of the receptor

## O=C1NS(=O)(=O)c2ccccc21 [saccharin]
T1R1/T1R3 [3]
  effect of other sweeteners on human T1R1/T1R3 activities: no effect
  effect of control sweeteners on activities of T1R1/T1R3 umami taste receptor: do not affect

## OC[C@H]1O[C@@](CO)(O[C@H]2O[C@H](CO)[C@@H](O)[C@H](O)[C@H]2O)[C@@H](O)[C@@H]1O [sucrose]
T1R1/T1R3 [3]
  effect of other sweeteners on human T1R1/T1R3 activities: no effect
Human sweet receptor; 0 μM lactisole
  EC50: 19400 ± 900 µM
Human sweet receptor; 10 μM lactisole
  EC50: 24700 ± 1000 µM
Human sweet receptor; 20 μM lactisole
  EC50: 31300 ± 300 µM
